From the supplement of paper PMC10307832

Legend:
Experiment in all cases: relative viability (nuclei count vs DMSO), 5 days (fraction); higher = more cells survive
[1] = compound: NC(=O)[C@@H](CCC(F)(F)F)N(Cc1ccc(-c2ncon2)cc1F)S(=O)(=O)c1ccc(Cl)cc1 [Avagacestat] + O=C(c1cc(Cc2n[nH]c(=O)c3ccccc23)ccc1F)N1CCN(C(=O)C2CC2)CC1 [Olaparib] (partner 8 µM)
Procedure, shortened: (§1)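 Lung cancer cell lines in 1536-well plates were dosed by pin tool the day after seeding, either with one drug alone or with a fixed anchor-drug dose plus five library-drug doses (not always all listed) in √10 steps. After 5 days, cells were fixed and their nuclei stained in one step (final 0.05% Triton X-100, 1% formaldehyde, 1 ug/ml Hoechst), then counted on 4× images. Relative viability is the nuclei count in treated wells divided by that in vehicle wells. Values are medians of duplicate plates.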

[2] = compound: NC(=O)[C@@H](CCC(F)(F)F)N(Cc1ccc(-c2ncon2)cc1F)S(=O)(=O)c1ccc(Cl)cc1 [Avagacestat] + Nc1ncn([C@H]2C[C@H](O)[C@@H](CO)O2)c(=O)n1 [Decitabine] (partner 2 µM)
Procedure, shortened: as §1

[3] = compound: NC(=O)[C@@H](CCC(F)(F)F)N(Cc1ccc(-c2ncon2)cc1F)S(=O)(=O)c1ccc(Cl)cc1 [Avagacestat] + NC(=O)Nc1cc(-c2cccc(F)c2)sc1C(=O)N[C@H]1CCCNC1 [AZD7762] (partner 0.2 µM)
Procedure, shortened: as §1

[4] = compound: NC(=O)[C@@H](CCC(F)(F)F)N(Cc1ccc(-c2ncon2)cc1F)S(=O)(=O)c1ccc(Cl)cc1 [Avagacestat] + CS(=O)(=O)CCNCc1ccc(-c2ccc3ncnc(Nc4ccc(OCc5cccc(F)c5)c(Cl)c4)c3c2)o1 [Lapatinib] (partner 2 µM)
Procedure, shortened: as §1

Row | Cell Line | relative viability ([1]; first compound 0.08 µM) | relative viability ([1]; first compound 0.253 µM) | relative viability ([1]; first compound 0.8 µM) | relative viability ([1]; first compound 2.53 µM) | relative viability ([1]; first compound 8 µM) | relative viability ([2]; first compound 0.08 µM) | relative viability ([2]; first compound 0.253 µM) | relative viability ([2]; first compound 0.8 µM) | relative viability ([2]; first compound 2.53 µM) | relative viability ([2]; first compound 8 µM) | relative viability ([3]; first compound 0.08 µM) | relative viability ([3]; first compound 0.253 µM) | relative viability ([3]; first compound 0.8 µM) | relative viability ([3]; first compound 2.53 µM) | relative viability ([3]; first compound 8 µM) | relative viability ([4]; first compound 0.08 µM) | relative viability ([4]; first compound 0.253 µM) | relative viability ([4]; first compound 0.8 µM) | relative viability ([4]; first compound 2.53 µM) | relative viability ([4]; first compound 8 µM)
1 | LCLC-103H | 0.809 | 0.617 | 0.845 | 0.745 | 0.766 | 0.753 | 0.76 | 0.776 | 0.561 | 0.583 | 0.815 | 0.759 | 0.837 | 0.68 | 0.688 | – | – | – | – | –
2 | NCI-H441 | 0.679 | 0.592 | 0.656 | 0.803 | 0.613 | 0.263 | 0.232 | 0.245 | 0.265 | 0.24 | 1.02 | 1.23 | 1.37 | 1.35 | 0.877 | – | – | – | – | –
3 | NCI-H520 | 0.337 | 0.367 | 0.335 | 0.338 | 0.251 | 0.606 | 0.501 | 0.467 | 0.453 | 0.475 | – | – | – | – | – | 1.03 | 0.878 | 0.846 | 0.724 | 0.663
4 | NCI-H522 | 0.566 | 0.715 | 0.656 | 0.691 | 0.621 | 0.782 | 0.674 | 0.681 | 0.606 | 0.614 | 0.768 | 0.82 | 0.807 | 0.843 | 0.985 | – | – | – | – | –
5 | NCI-H661 | 0.795 | 0.918 | 0.771 | 0.774 | 0.725 | 0.585 | 0.568 | 0.608 | 0.56 | 0.558 | – | – | – | – | – | 0.508 | 0.594 | 0.473 | – | 0.497
6 | NCI-H1299 | 0.97 | 1.07 | 0.975 | 0.979 | 0.929 | – | – | – | – | – | – | – | – | – | – | 1.03 | 0.984 | 0.988 | 0.924 | 0.926
7 | NCI-H1563 | – | – | – | – | – | – | – | – | – | – | – | – | – | – | – | 0.959 | 0.806 | 0.951 | 0.828 | 0.925
8 | NCI-H1648 | 0.678 | 0.806 | 0.516 | 0.437 | 0.534 | 0.469 | 0.392 | 0.265 | 0.363 | 0.37 | 0.603 | 0.564 | 0.548 | 0.46 | 0.48 | – | – | – | – | –
9 | NCI-H1650 | 0.961 | 0.893 | 0.86 | 0.917 | 0.936 | 0.432 | 0.558 | 0.457 | 0.432 | 0.416 | – | – | – | – | – | 1.02 | 0.825 | 0.695 | 0.884 | 0.853
10 | NCI-H1703 | 0.489 | 0.297 | 0.421 | 0.264 | 0.335 | – | – | – | – | – | 0.123 | 0.143 | 0.115 | 0.112 | 0.124 | 0.986 | 1.28 | 1.44 | 1.02 | 1.03
11 | NCI-H2009 | 0.718 | 0.73 | 0.779 | 0.667 | 0.66 | 0.412 | 0.384 | 0.386 | 0.332 | 0.395 | – | – | – | – | – | 0.963 | 0.995 | 0.857 | 0.993 | 0.814
12 | NCI-H2023 | 0.751 | 0.52 | 0.479 | 0.493 | 0.475 | 0.255 | 0.257 | 0.288 | 0.221 | 0.218 | – | – | – | – | – | 0.979 | 0.89 | 0.822 | 0.617 | 0.7
13 | NCI-H2228 | 0.642 | 0.862 | 0.8 | 0.658 | 0.59 | – | – | – | – | – | – | – | – | – | – | 1.33 | 0.875 | 1.52 | 1.13 | 0.718
14 | NCI-H2342 | 0.441 | 0.384 | 0.486 | 0.458 | 0.451 | 0.738 | 0.686 | 0.706 | 0.695 | 0.742 | 0.479 | 0.536 | 0.589 | 0.499 | 0.438 | – | – | – | – | –
15 | SK-LU-1 | 0.472 | 0.62 | 0.515 | – | 0.374 | 0.66 | 0.638 | 0.699 | 0.53 | 0.552 | – | – | – | – | – | 0.956 | 0.852 | 0.889 | – | 0.73
16 | SK-MES-1 | 0.905 | 0.772 | 0.88 | 0.667 | 0.646 | 0.367 | 0.415 | 0.373 | 0.329 | 0.311 | – | – | – | – | – | 0.476 | 0.496 | 0.531 | 0.444 | 0.423
17 | SW 900 | 1.04 | 0.96 | 0.982 | 0.634 | 0.896 | 0.376 | 0.401 | 0.422 | 0.464 | 0.41 | 0.847 | 0.807 | 0.606 | 0.571 | 0.466 | – | – | – | – | –
18 | SW 1573 | 0.643 | 0.572 | 0.465 | 0.472 | 0.47 | 0.539 | 0.582 | 0.664 | 0.446 | 0.59 | – | – | – | – | – | 1.19 | 1.21 | 0.982 | 1.1 | 1.09
19 | UMC-11 | 0.387 | 0.698 | 0.356 | 0.385 | 0.389 | 0.657 | 0.57 | 0.585 | 0.602 | 0.597 | – | – | – | – | – | 1.17 | 1 | 1.26 | 1.1 | 0.921
